Assay results taken from patent US6287834A, “Characterization and use of an isolated uridine diphospho-glucuronosyltransferase” (Endorecherche, Inc., priority 1999, dated 2001).

B1: UGT2B17 (Homo sapiens) (protein)
chain: GKVLVWPTEYSHWINMKTILEELVQRGHEVIVLTSSASILVNASKSSAIKLEVYPTSLTKNDLEDFFMKMFDRWTYSISKNTFWSYFSQLQELCWEYSDYNIKLCEDAVLNKKLMRKLQESKFDVLLADAVNPCGELLAELLNIPFLYSLRFSVGYTVEKNGGGFLFPPSYVPVVMSELSDQMIFMERIKNMIYMLYFDFWFQAYDLKKWDQFYSEVLGRPTTLFETMGKAEMWLIRTYWDFEFPRPFLPNVDFVGGLHCKPAKPLPKEMEEFVQSSGENGIVVFSLGSMISNMSEESANMIASALAQIPQKVLWRFDGKKPNTLGSNTRLYKWLPQNDLLGHPKTKAFITHGGTNGIYEAIYHGIPMVGIPLFADQHDNIAHMKAKGAALSVDIRTMSSRDLLNALKSVINDPIYKENIMKLSRIHHDQPVKPLDRAVFWIEFVMRHKGAKHLRVAAHNLTWIQYHSLDVIAFLLACVATMIFMITKCCLFCFRKLAKTGKKKKRD
B2: uridine diphospho-glucuronosyltransferase 2B17 (protein)
chain: MSLKWMSVFLLMQLSCYFSSGSCGKVLVWPTEYSHWINMKTILEELVQRGHEVIVLTSSASILVNASKSSAIKLEVYPTSLTKNDLEDFFMKMFDRWTYSISKNTFWSYFSQLQELCWEYSDYNIKLCEDAVLNKKLMRKLQESKFDVLLADAVNPCGELLAELLNIPFLYSLRFSVGYTVEKNGGGFLFPPSYVPVVMSELSDQMIFMERIKNMIYMLYFDFWFQAYDLKKWDQFYSEVLGRPTTLFETMGKAEMWLIRTYWDFEFPRPFLPNVDFVGGLHCKPAKPLPKEMEEFVQSSGENGIVVFSLGSMISNMSEESANMIASALAQIPQKVLWRFDGKKPNTLGSNTRLYKWLPQNDLLGHPKTKAFITHGGTNGIYEAIYHGIPMVGIPLFADQHDNIAHMKAKGAALSVDIRTMSSRDLLNALKSVINDPIYKENIMKLSRIHHDQPVKPLDRAVFWIEFVMRHKGAKHLRVAAHNLTWIQYHSLDVIAFLLACVATMIFMITKCCLFCFRKLAKTGKKKKRD

How the values were obtained:
[1] = target: T1, UGT2B17 (Homo sapiens, UniProt O75795); assay: Second glucuronidation assay to determine the amount of enzyme activity (glucuronide formation); format: biochemical; conditions: for Glucuronide Formation (pmol/min/mg protein): HK293-UGT2B17 cell homogenate, 6 μM [14C]UDPGA and 494 μM unlabelled UDPGA, 15 minutes at 30° C.; for identified as major endogenous substrates of UGT2B17: 3α and 17β hydroxyandrogens
T1 construct: cell homogenate
T1 sequence (O75795 24-530): B1 chain
Procedure: Stable Expression of UGT2B17. Human kidney 293 cells were grown in Dubelcco's modified Eagle's medium containing 4.5 g/l glucose, 10 mM HEPES, 110 μg/ml sodium pyruvate, 100 IU of penicillin/ml, 100 μg/ml of streptomycin and 10% fetal bovine serum (FBS) in a humidified incubator, with an atmosphere of 5% CO2, at 37° C. 5 μg of pBK-CMV-UGT2B17 was used to transfect HK293 cells using Lipofectin and following the manufacturer's instructions (Gibco BRL: Burlington, Canada). Forty-eight hours after transfection, stable transfectants were selected in a media containing 800 μg/ml G418.
Glucuronidation Assay Using Cell Homogenates. HK293 cells expressing UGT2B17 were suspended in a Tris buffered saline containing 0.5 mM DTT and were homogenized using a Brinkman polytron. Enzyme assays were performed using [^14 C] UDP-glucuronic acid ([…]), 500 μM of the various aglycones and 150 μg of protein from cell homogenates in 50 mM Tris-HCl (pH 7.5), 10 mM MgCl2, 100 μg/ml phosphatidylcholine and 8.5 mM saccharolactone in a final volume of 100 μl. The enzyme assays were terminated by adding 100 μl of methanol, and the tubes were centrifuged at 14,000 g for 1 minute to remove the precipitated proteins. 100 μl of the aqueous phase was applied onto thin layer chromatography (TLC) plates (0.25 mm thick silica gel, 60 F254 S) (EM Science, Gibbstown, N.J.) and then was chromatographed in a solvent of toluene:methanol:acetic acid in the proportion of 7:3:1. The TLC plates were exposed for four days and the extent of glucuronidation was measured by Phosphorimager (Molecular Dynamics).
In the second assay, the substrate was exposed to […]

[2] = target: T1, UGT2B17; assay: Kinetic analysis of UGT2B17 specificity (Lineweaver-Burk plots, FIGS. 4A and 4B); format: biochemical
Procedure: to FIGS. 4A and 4B are Lineweaver-Burk plots of ADT and DHT, and 3α-DIOL and testosterone (TESTO), respectively; and
A kinetic analysis was also performed to further characterize the specificity of UGT2B17 for ADT, DHT, 3α-DIOL and testosterone.

[3] = substrate: O=C(O)[C@H]1O[C@H](OP(=O)(O)OP(=O)(O)OC[C@H]2O[C@@H](n3ccc(=O)[nH]c3=O)[C@H](O)[C@@H]2O)[C@H](O)[C@@H](O)[C@@H]1O; assay: cells, lysate or membranes; conditions: other: 30° C., reaction linear for 30 minutes, pH 7.5
[4] = tested on: androgen response element reporter in LNCaP cells; assay: Androgen response element reporter construct in LNCaP cells transfected with UGT2B17; format: cell-based, human
Text: Reducing androgen activity with UGT2B17. LNCaP cells were transfected with UGT2B17 in the presence of a reporter construct controlled by an androgen response element so as the expression of the reporter gene is indicative of androgenic activity.

Row | Molecule | Glucuronide Formation (pmol/min/mg protein) [1] [pmol/min/mg protein] | identified as major endogenous substrates of UGT2B17 [1] | also measured
1 | C[C@H](O)[C@H]1CC[C@H]2[C@@H]3CC[C@H]4C[C@H](O)CC[C@]4(C)[C@H]3CC[C@]12C [5α-pregnane-3α,20α-diol] | 8 | – | –
2 | C[C@]12CC[C@@H](O)C[C@@H]1CC[C@@H]1[C@@H]2[C@@H](O)C[C@]2(C)[C@@H](O)CC[C@@H]12 [5α-Androstane-3α,11β,17β-triol] | 8 | – | –
3 | Oc1ccc(-c2ccc(O)cc2)cc1 [p,p' biphenyl] | 5 | – | –
4 | C=CCc1ccc(O)c(OC)c1 [Eugenol] | 38 | – | –
5 | C[C@]12CCC(=O)C[C@@H]1CC[C@@H]1[C@@H]2CC[C@]2(C)[C@@H](O)CC[C@@H]12 [Dihydrotestosterone] | 14 | major endogenous substrates | affinity of the enzyme based on Km values [2]: similar
6 | C[C@]12CC[C@H]3[C@@H](CCC4=CC(=O)CC[C@@]43C)[C@@H]1CC[C@@H]2O [Testosterone] | 9 | major endogenous substrates | affinity of the enzyme based on Km values [2]: similar
7 | O=[N+]([O-])c1ccc(O)cc1 [p-nitrophenol] | 4 | – | –
8 | C[C@]12CC[C@H](O)C[C@@H]1CC[C@@H]1[C@@H]2CC[C@]2(C)[C@@H](O)CC[C@@H]12 [5α-Androstane-3β,17β-diol] | – | major endogenous substrates | –
9 | C[C@]12CC[C@@H](O)C[C@H]1CC[C@@H]1[C@@H]2CC[C@]2(C)[C@@H](O)CC[C@@H]12 [5β-Androstane-3α,17β-diol] | 14 | – | –
10 | Oc1cccc2ccccc12 [l-naphtol] | 7 | – | –
11 | C[C@]12CC[C@@H](O)C[C@H]1CC[C@@H]1[C@@H]2CC[C@]2(C)C(=O)CC[C@@H]12 [Etiocholanolone] | 13 | – | –
12 | C[C@]12CC[C@H]3[C@@H](CC=C4C[C@@H](O)CC[C@@]43C)[C@@H]1CC[C@@H]2O [Androst-5-ene-3β,17β-diol] | – | major endogenous substrates | –
13 | C[C@]12CC[C@@H](O)C[C@@H]1CC[C@@H]1[C@@H]2[C@H](O)C[C@]2(C)[C@@H](O)CC[C@@H]12 [5α-Androstane-3α,11α,17β-triol] | 5 | – | –
14 | C[C@]12CC[C@@H](O)C[C@@H]1CC[C@@H]1[C@@H]2CC[C@]2(C)[C@@H](O)CC[C@@H]12 [5α-Androstane-3α,17β-diol] | 15 | major endogenous substrates | affinity of the enzyme based on Km values [2]: similar
15 | C[C@]12CC[C@@H](O)C[C@@H]1CC[C@@H]1[C@@H]2CC[C@]2(C)C(=O)CC[C@@H]12 [Androsterone] | 5 | major endogenous substrates | affinity of the enzyme based on Km values [2]: similar
16 | Oc1ccccc1-c1ccccc1O [o,o' biphenyl] | 7 | – | –
17 | C[C@]12CC[C@@H](O)C[C@H]1CC[C@@H]1[C@@H]2CC[C@]2(C)[C@@H](O)[C@H](O)C[C@@H]12 [5β-Androstane-3α,16α,17β-triol] | 11 | – | –
18 | B1 | – | – | Km [3]: 200 µM
19 | B2 | – | – | expression of the reporter gene (indicative of androgenic activity) [4]: decreased expression of the reporter gene
